Test results published in ChEMBL document CHEMBL1143312, “Design, synthesis, and evaluation in vitro of quinoline-8-carboxamides, a new class of poly(adenosine-diphosphate-ribose)polymerase-1 (PARP-1) inhibitor” (J Med Chem, 2009).

Target: Poly [ADP-ribose] polymerase 1 (Homo sapiens, UniProt P09874)
Test: Inhibition of human recombinant PARP1 by Trevigen colorimetric assay

Sequence of Poly [ADP-ribose] polymerase 1 (P09874 whole entry): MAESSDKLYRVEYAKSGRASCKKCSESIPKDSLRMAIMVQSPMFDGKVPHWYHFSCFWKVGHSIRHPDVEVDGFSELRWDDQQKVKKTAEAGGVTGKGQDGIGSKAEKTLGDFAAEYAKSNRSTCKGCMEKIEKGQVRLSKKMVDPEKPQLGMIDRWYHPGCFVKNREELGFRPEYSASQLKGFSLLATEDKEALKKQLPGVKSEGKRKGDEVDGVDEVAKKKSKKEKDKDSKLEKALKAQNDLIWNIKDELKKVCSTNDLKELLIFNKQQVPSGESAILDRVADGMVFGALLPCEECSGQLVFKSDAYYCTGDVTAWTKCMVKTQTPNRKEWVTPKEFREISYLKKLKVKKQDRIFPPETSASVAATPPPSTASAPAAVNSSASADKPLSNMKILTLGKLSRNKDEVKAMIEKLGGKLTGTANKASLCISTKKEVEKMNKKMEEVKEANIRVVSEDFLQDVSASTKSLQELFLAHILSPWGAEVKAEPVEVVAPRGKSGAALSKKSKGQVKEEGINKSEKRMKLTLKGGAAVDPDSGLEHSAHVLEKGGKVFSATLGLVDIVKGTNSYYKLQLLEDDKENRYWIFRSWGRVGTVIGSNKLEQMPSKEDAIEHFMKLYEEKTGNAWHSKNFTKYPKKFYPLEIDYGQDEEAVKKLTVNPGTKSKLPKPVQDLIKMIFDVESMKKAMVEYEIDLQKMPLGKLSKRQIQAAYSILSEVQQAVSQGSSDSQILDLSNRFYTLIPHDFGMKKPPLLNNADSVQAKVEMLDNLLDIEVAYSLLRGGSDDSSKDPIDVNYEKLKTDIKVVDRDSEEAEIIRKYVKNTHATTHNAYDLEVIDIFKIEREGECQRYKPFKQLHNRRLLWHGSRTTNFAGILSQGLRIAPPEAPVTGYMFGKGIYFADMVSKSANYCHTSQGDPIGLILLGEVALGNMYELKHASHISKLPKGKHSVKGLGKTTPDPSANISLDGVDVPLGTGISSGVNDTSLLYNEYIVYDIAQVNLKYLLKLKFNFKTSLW

Nc1cccc2c(=O)[nH]ccc12
IC50: 1800 nM
